Experimental data taken from patent US20240018121A1, “NOVEL HETEROAROMATIC COMPOUNDS EXHIBITING ANTIFUNGAL ACTIVITY AND THEIR METHOD OF USE” (FOX CHASE CHEMCIAL DIVERSITY CENTER, INC., priority 2020, published 2024).
Converted amounts (≈) assume the structure as drawn. Structures can show the parent of a compound that is named as a salt. Where two headings read alike, the source gives them in different places.

Experiments:
Assay type in all cases: cell-based
Candida albicans GDH2346 = test: Candida Minimal Inhibitory Concentration (MIC); details: Candida albicans, read-out: MIC-50 Candida albicans GDH2346
In short: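 Twofold serial dilutions from 200 μg/mL in RPMI 1640/MOPS with glucose, pH 7.0, tested in duplicate against yeast from an OD600 1.0 suspension diluted 1:1000. Incubated at 35° C; OD600 read at 24 and 48 h.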

[1] = tested on: Fusarium solani (ATCC 58877); test: Fungal MIC Protocol, Fusarium solani; details: Fusarium solani, read-out: MIC Fusarium solani 58877
In short: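 Broth microdilution MIC test against Fusarium solani in RPMI/MOPS medium at pH 7.0. Compounds from DMSO stock were diluted to 200 ug/mL, then serially diluted ten times and plated in duplicate at 50 μl per well. 50 ul of spore suspension at OD530 0.005 was added. Controls had compound without cells and spores without compound. Plates were mixed gently, bagged, and incubated at 35° C. for 48 hours.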

[2] = tested on: Mucor circinelloides 1463(62) (ATCC 26759); test: Fungal MIC Protocol, Mucor circinelloides (MIC-50); details: Mucor circinelloides, read-out: MIC-50 Mucorales circinelloides 26579
In short: (§1)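 Spores from PDA cultures (Aspergillus, Fusarium at 35 °C; Mucor at room temperature) diluted in RPMI/MOPS pH 7.0 to ~2×10^4 cfu/mL. Ten serial dilutions starting from 200 ug/mL in medium (before 1:1 mixing with spores), in duplicate; 48 h at 35 °C. MIC is the lowest concentration giving >50% visually scored growth inhibition.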

[3] = tested on: Mucor ramosissimus 057718 (ATCC 90286); test: Fungal MIC Protocol, Mucor ramosissimus (MIC-50); details: Mucor ramosissimus, read-out: MIC-50 Mucorales ramosissimus 90286
In short: as §1

[4] = tested on: Aspergillus flavus AFL1 (ATCC MYA-3631); test: Fungal MIC Protocol, Aspergillus flavus; details: Aspergillus flavus, read-out: MIC Aspergillus flavus 3631
In short: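 The MIC against Aspergillus flavus was measured by broth microdilution in RPMI/MOPS medium at pH 7.0. Compounds were diluted to 200 ug/mL from DMSO stocks, then ten serial dilutions were tested in duplicate in round bottom 96-well plates. Spores adjusted to a final OD530 of 0.002 were added, with no-cell and no-compound control wells, and plates were incubated 48 hours at 35° C.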

[5] = tested on: Fusarium falciforme FS1 (ATCC MYA-3636); test: Fungal MIC Protocol, Fusarium falciforme; details: Fusarium falciforme, read-out: MIC Fusarium falciforme 3636
In short: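 MIC against Fusarium falciforme was determined by broth microdilution in RPMI/MOPS medium containing glucose. Compounds started at 200 ug/mL and were serially diluted ten times, then combined with harvested spores adjusted to an OD530 of 0.005. Controls held compound without cells and spores without compound. Plates were bagged and incubated at 35° C. for 48 hours.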

[6] = tested on: Aspergillus fumigatus T33439 (ATCC MYA-3626); test: Fungal MIC Protocol, Aspergillus fumigatus; details: Aspergillus fumigatus, read-out: MIC Aspergillus fumigatus 3626
In short: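 This broth microdilution MIC test used RPMI/MOPS medium at pH 7.0 with glucose. Compounds were diluted from DMSO stock to 200 ug/mL and serially diluted ten times in 96-well round bottom plates. Equal volumes of compound and Aspergillus spore suspension at OD530 0.002 were combined, with controls of compound without cells and spores without compound. Plates were bagged and incubated at 35° C. for 48 hours.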

[7] = GDH2346, 50% growth inhibition at 48 hours
[8] = ATCC58877, 100% growth inhibition at 48 hours
[9] = ATCC26759, 50% growth inhibition at 48 hours
[10] = ATCC90286, 50% growth inhibition at 48 hours
[11] = 100% growth inhibition at 48 hours

Row | SMILES | MIC50 (Candida albicans GDH2346; [7]) [µg/mL] | MIC [1, 8] [µg/mL] | MIC50 [2, 9] [µg/mL] | MIC50 [3, 10] [µg/mL] | MIC [4, 11] [µg/mL] | MIC [5, 11] [µg/mL] | MIC [6, 11] [µg/mL] | MIC50 (Candida albicans GDH2346; GDH2346, 48 h) [µg/mL] | MIC ([1]; ATCC58877, 48 h) [µg/mL] | MIC50 ([2]; ATCC26759, 48 h) [µg/mL] | MIC50 ([3]; ATCC90286, 48 h) [µg/mL] | MIC ([4]; 48 h) [µg/mL] | MIC ([5]; 48 h) [µg/mL] | MIC ([6]; 48 h) [µg/mL]
1 | N=C(N)N1CC=C(c2ccc(-c3nnc(-c4ccc(C5=CCN(C(=N)N)CC5)cc4F)n3CC(F)(F)F)c(F)c2)CC1 [Example 84, 4-(4-{5-[4-(1-carbamimidoyl-1,2,3,6-tetrahydropyridin-4-yl)-2-fluorophenyl]-4-(2,2,2-trifluoroethyl)-4H-1,2,4-triazol-3-yl}-3-fluorophenyl)-1,2,3,6-tetrahydropyridine-1-carboximidamide hydrochloride] |  |  |  |  |  |  |  | 0.2 | 0.05 | 0.39 | 0.78 | 0.39 | 0.1 | 0.2
2 | Cn1c(-c2cc(F)c(C3=CCN(C(=N)N)CC3)cc2F)nnc1-c1cc(F)c(C2=CCN(C(=N)N)CC2)cc1F [Example 20, 4,4′-(4,4′-(4-Methyl-4H-1,2,4-triazole-3,5-diyl)bis(2,5-difluoro-4,1-phenylene))bis(5,6-dihydropyridine-1(2H)-carboximidamide)] | 0.78 (≈ 1.41 µM) | 0.2 (≈ 0.361 µM) | 0.78 (≈ 1.41 µM) | 12.5 (≈ 22.6 µM) | 0.2 (≈ 0.361 µM) | < 0.1 | < 0.1 |  |  |  |  |  |  | 
3 | CC(C)n1c(-c2ccc(C3=CCN(C(=N)N)CC3)cc2)nnc1-c1ccc(C2=CCN(C(=N)N)CC2)cc1 [Example 3, 4,4′-(4,4′-(4-isopropyl-4H-1,2,4-triazole-3,5-diyl)bis(4,1-phenylene))bis(5,6-dihydropyridine-1 (2H)-carboximidamide)] | 0.1 (≈ 0.196 µM) | < 0.1 | 0.39 (≈ 0.765 µM) | 0.78 (≈ 1.53 µM) | < 0.1 | < 0.1 | < 0.1 |  |  |  |  |  |  | 
4 | Cn1c(-c2ccc(C3=CCC(C(=N)N)CC3)cc2F)nnc1-c1ccc(C2=CCC(C(=N)N)CC2)cc1F (stereo not shown) [Example 87, 4-(4-{5-[4-(4-carbamimidoylcyclohex-1-en-1-yl)-2-fluorophenyl]-4-methyl-4H-1,2,4-triazol-3-yl}-3-fluorophenyl)cyclohex-3-ene-1-carboximidamide trifluoroacetate] |  |  |  |  |  |  |  | 0.2 | 0.2 | 0.39 | 3.13 | 0.78 | 0.1 | 0.2
5 | Cc1cc(C2=CCN(C(=N)N)CC2)ccc1-c1nnc(-c2ccc(C3=CCN(C(=N)N)CC3)cc2)n1C [Example 21, 4-(4-(5-(4-(1-Carbamimidoyl-1,2,3,6-tetrahydropyridin-4-yl)-2-methylphenyl)-4-methyl-4H-1,2,4-triazol-3-yl)phenyl)-5,6-dihydropyridine-1(2H)-carboximidamide] | 0.3 (≈ 0.605 µM) | 0.2 (≈ 0.404 µM) | 3.13 (≈ 6.32 µM) | 6.25 (≈ 12.6 µM) | 0.39 (≈ 0.787 µM) | 0.2 (≈ 0.404 µM) | 0.2 (≈ 0.404 µM) |  |  |  |  |  |  | 
6 | COCCn1c(-c2ccc(C3=CCN(C(=N)N)CC3)cc2)nnc1-c1ccc(C2=CCN(C(=N)N)CC2)cc1 [Example 67, 4-(4-{5-[4-(1-carbamimidoyl-1,2,3,6-tetrahydropyridin-4-yl)phenyl]-4-(2-methoxyethyl)-4H-1,2,4-triazol-3-yl}phenyl)-1,2,3,6-tetrahydropyridine-1-carboximidamide trifluoroacetate] |  |  |  |  |  |  |  | 0.2 | 0.05 | 0.39 | 1.56 | 0.1 | 0.05 | 0.1
7 | Cc1cc(-c2nnc(-c3ccc(C4=CCN(C(=N)N)CC4)c(C)c3)n2C)ccc1C1=CCN(C(=N)N)CC1 [Example 24, 4,4′-(4,4′-(4-Methyl-4H-1,2,4-triazole-3,5-diyl)bis(2-methyl-4,1-phenylene)) bis(5,6-dihydropyridine-1(2H)-carboximidamide)] | 1.56 (≈ 3.06 µM) | 0.78 (≈ 1.53 µM) | 6.25 (≈ 12.3 µM) | 50 (≈ 98.1 µM) | 1.56 (≈ 3.06 µM) | 0.78 (≈ 1.53 µM) | 0.78 (≈ 1.53 µM) |  |  |  |  |  |  | 
8 | Cn1c(-c2ccc(C3=CCN(C(=N)N)CC3)cc2F)nnc1-c1ccc(C2=CCN(C(=N)N)CC2)cc1F [Example 8, 4,4′-(4,4′-(4-Methyl-4H-1,2,4-triazole-3,5-diyl)bis(3-fluoro-4,1-phenylene)) bis(5,6-dihydropyridine-1(2H)-carboximidamide)] | 0.1 (≈ 0.193 µM) | 0.05 (≈ 0.0966 µM) | 0.2 (≈ 0.386 µM) | 0.39 (≈ 0.753 µM) | 0.05 (≈ 0.0966 µM) | 0.006 (≈ 0.0116 µM) | 0.05 (≈ 0.0966 µM) |  |  |  |  |  |  | 
9 | Cn1c(-c2ccc(C3=CCN(C(=N)N)CC3)cc2)nnc1-c1ccc(C2=CCN(C(=N)N)CC2)c(C(F)(F)F)c1 [Example 25, 4-(4-(5-(4-(1-Carbamimidoyl-1,2,3,6-tetrahydropyridin-4-yl)-3-(trifluoromethyl)phenyl)-4-methyl-4H-1,2,4-triazol-3-yl)phenyl)-5,6-dihydropyridine-1(2H)-carboximidamide] | 0.78 (≈ 1.42 µM) | 0.2 (≈ 0.364 µM) | 0.78 (≈ 1.42 µM) | 3.13 (≈ 5.69 µM) | 0.39 (≈ 0.71 µM) | 0.2 (≈ 0.364 µM) | 0.2 (≈ 0.364 µM) |  |  |  |  |  |  | 

Second part, led by results:

Row | MIC50 (Candida albicans GDH2346; [7]) [µg/mL] | MIC [1, 8] [µg/mL] | MIC50 [2, 9] [µg/mL] | MIC50 [3, 10] [µg/mL] | MIC [4, 11] [µg/mL] | MIC [5, 11] [µg/mL] | MIC [6, 11] [µg/mL] | SMILES | MIC50 (Candida albicans GDH2346; GDH2346, 48 h) [µg/mL] | MIC ([1]; ATCC58877, 48 h) [µg/mL] | MIC50 ([2]; ATCC26759, 48 h) [µg/mL] | MIC50 ([3]; ATCC90286, 48 h) [µg/mL] | MIC ([4]; 48 h) [µg/mL] | MIC ([5]; 48 h) [µg/mL] | MIC ([6]; 48 h) [µg/mL]
10 | 0.39 (≈ 0.81 µM) | 1.56 (≈ 3.24 µM) | 0.39 (≈ 0.81 µM) | 25 (≈ 51.9 µM) | 0.39 (≈ 0.81 µM) | < 0.1 | 1.56 (≈ 3.24 µM) | Cc1cc(-n2cc(-c3ccc(C4=CCN(C(=N)N)CC4)cc3)nn2)ccc1C1=CCN(C(=N)N)CC1 [Example 35, 4-(4-(1-(4-(1-Carbamimidoyl-1,2,3,6-tetrahydropyridin-4-yl)-3-methylphenyl)-1H-1,2,3-triazol-4-yl)phenyl)-5,6-dihydropyridine-1(2H)-carboximidamide] |  |  |  |  |  |  | 
11 | 0.78 (≈ 1.62 µM) | 0.39 (≈ 0.81 µM) | 0.39 (≈ 0.81 µM) | 6.25 (≈ 13 µM) | 0.2 (≈ 0.415 µM) | 0.39 (≈ 0.81 µM) | 0.39 (≈ 0.81 µM) | Cc1cc(-c2cn(-c3ccc(C4=CCN(C(=N)N)CC4)cc3)nn2)ccc1C1=CCN(C(=N)N)CC1 [Example 37, 4-(4-(4-(4-(1-Carbamimidoyl-1,2,3,6-tetrahydropyridin-4-yl)-3-methylphenyl)-1H-1,2,3-triazol-1-yl)phenyl)-5,6-dihydropyridine-1(2H)-carboximidamide] |  |  |  |  |  |  | 
12 | 0.1 | 0.1 | 0.2 | 0.39 | 0.1 | 0.05 | 0.1 | Cn1c(-c2ccc(C3=CCN(C(=N)N)CC3)c(F)c2)nnc1-c1ccc(C2=CCN(C(=N)N)CC2)cc1F [Example 79, 4-(4-{5-[4-(1-carbamimidoyl-1,2,3,6-tetrahydropyridin-4-yl)-2-fluorophenyl]-4-methyl-4H-1,2,4-triazol-3-yl}-2-fluorophenyl)-1,2,3,6-tetrahydro pyridine-1-carboximidamide trifluoroacetate] |  |  |  |  |  |  | 
13 | 0.39 (≈ 0.748 µM) | 0.2 (≈ 0.383 µM) | 0.78 (≈ 1.5 µM) | 6.25 (≈ 12 µM) | 0.39 (≈ 0.748 µM) | < 0.1 | < 0.1 | Cn1c(-c2ccc(C3=CCN(C(=N)N)C3)cc2)nnc1-c1ccc(C2=CCN(C(=N)N)C2)c(C(F)(F)F)c1 [Example 27, 3-(4-(5-(4-(1-Carbamimidoyl-2,5-dihydro-1H-pyrrol-3-yl)-3-(trifluoromethyl)phenyl)-4-methyl4H-1,2,4-triazol-3-yl)phenyl)-2,5-dihydro-1H-pyrrole-1-carboximidamide] |  |  |  |  |  |  | 
